# Experimental data taken from patent publication US20090041617A1, “PURIFIED HYDROGEN PEROXIDE GAS MICROBIAL CONTROL METHODS AND DEVICES” (priority 2007, published 2009).
# Read-outs that look alike come from different tables or passages of the source.
# What was measured:
# MRSA (ATCC 33592) = conditions: for Average CFU/Test carrier (Survivors in the test) / Percent Reduction Compared to Corresponding Natural Die-off / Percent Reduction as Compared to Time Zero Control: PHPG 0.005-0.01 ppm, 35%-40% relative humidity
# From the text: (§1) The device was subjected to tests designed and implemented by two accredited laboratories to: (a) measure the output of Purified Hydrogen Peroxide Gas (PHPG); (b) confirm that the output was substantially free of ozone; (c) confirm that the output was substantially free of VOC's; (d) measure the efficacy of PHPG against the Feline Calicivirus (an EPA-approved substitute for noroviruses), Methicillin Resistant Staphylococcus Aureous (MRSA), Vancomyacin Resistant Enterococcus Faecalis (VRE), Clostridium Difficile (C-Diff), Geobacillus Stearothermophilus, (a stable bacteria used by the insurance industry to verify successful microbial remediation), and Aspergillus Niger (a common fungus); and (e) test at a variety of ambient relative humidities including 35% to 40% at 70 to 72 degrees Fahrenheit, 56% to 59% at 81 to 85 degrees Fahrenheit, and 98% at 78 degrees Fahrenheit.
# (§2) In quantitative microbial testing at ATS labs in Eagan, Minn. the following data was collected.
# [1] = test system: Feline Calicivirus (Norovirus substitute); conditions: for Average Virus Infectivity Observed After Exposure / Percent Reduction Compared to Corresponding Natural Die-off / Percent Reduction as Compared to Time Zero Virus Control: PHPG 0.005-0.01 ppm, 35%-40% relative humidity
# From the text: as §1, §2
# [2] = test system: C. difficile (ATCC 700792); conditions: for Average CFU/Test carrier (Survivors in the test) / Percent Reduction Compared to Corresponding Natural Die-off / Percent Reduction as Compared to Time Zero Control: PHPG 0.005-0.01 ppm, 35%-40% relative humidity
# From the text: as §1, §2
# VRE (ATCC 51575) = conditions: for Average CFU/Test carrier (Survivors in the test) / Percent Reduction Compared to Corresponding Natural Die-off / Percent Reduction as Compared to Time Zero Control: PHPG 0.005-0.01 ppm, 35%-40% relative humidity
# From the text: as §1, §2
# A. niger (ATCC 16404) = conditions: for Average CFU/Test carrier (Survivors in the test) / Percent Reduction Compared to Corresponding Natural Die-off / Percent Reduction as Compared to Time Zero Control: PHPG 0.005-0.01 ppm, 35%-40% relative humidity
# From the text: as §1, §2
# [3] = test system: Geobacillus Stearothermophilus
# From the text: as §1
# [4] = PHPG about 0.005 ppm to about 0.10 ppm in the environment
compound,measurement,setting,value
"OO [PHPG, Purified Hydrogen Peroxide Gas]",Average CFU/Test carrier (Survivors in the test),MRSA (ATCC 33592); 2 hours,<1 (no survivors) CFU/Test carrier
same,Percent Reduction Compared to Corresponding Natural Die-off,MRSA (ATCC 33592); 2 hours,>99.9999%
same,Percent Reduction as Compared to Time Zero Control,MRSA (ATCC 33592); 2 hours,>99.9999%
same,Average CFU/Test carrier (Survivors in the test),MRSA (ATCC 33592); 6 hours,<1 (no survivors) CFU/Test carrier
same,Percent Reduction Compared to Corresponding Natural Die-off,MRSA (ATCC 33592); 6 hours,>99.9999%
same,Percent Reduction as Compared to Time Zero Control,MRSA (ATCC 33592); 6 hours,>99.9999%
same,Average CFU/Test carrier (Survivors in the test),MRSA (ATCC 33592); 24 hours,<1 (no survivors) CFU/Test carrier
same,Percent Reduction Compared to Corresponding Natural Die-off,MRSA (ATCC 33592); 24 hours,>99.9999%
same,Percent Reduction as Compared to Time Zero Control,MRSA (ATCC 33592); 24 hours,>99.9999%
same,efficacy in words,MRSA (ATCC 33592); [4],proven effective
same,efficacy in words,[1]; [4],proven effective
same,Average Virus Infectivity Observed After Exposure,[1]; exposure 2 hrs,4.3 log10
same,Percent Reduction Compared to Corresponding Natural Die-off,[1]; exposure 2 hrs,96.8%
same,Percent Reduction as Compared to Time Zero Virus Control,[1]; exposure 2 hrs,99.5%
same,Average Virus Infectivity Observed After Exposure,[1]; exposure 6 hrs,2.3 log10
same,Percent Reduction Compared to Corresponding Natural Die-off,[1]; exposure 6 hrs,99.8%
same,Percent Reduction as Compared to Time Zero Virus Control,[1]; exposure 6 hrs,99.995%
same,Percent Reduction Compared to Corresponding Natural Die-off,[1]; exposure 24 hrs,99.8%
same,Percent Reduction as Compared to Time Zero Virus Control,[1]; exposure 24 hrs,≧99.9999%
same,Average Virus Infectivity Observed After Exposure,"[1]; exposure 24 hrs, virus detected in only one replicate",≦0.6 log10
same,Average CFU/Test carrier (Survivors in the test),[2]; 2 hours,2.18 × 10^5 CFU/ CFU/Carrier
same,Percent Reduction Compared to Corresponding Natural Die-off,[2]; 2 hours,9.2%
same,Percent Reduction as Compared to Time Zero Control,[2]; 2 hours,27.3%
same,Average CFU/Test carrier (Survivors in the test),[2]; 6 hours,1.1 × 10^5 CFU/ CFU/Carrier
same,Percent Reduction Compared to Corresponding Natural Die-off,[2]; 6 hours,60.6%
same,Percent Reduction as Compared to Time Zero Control,[2]; 6 hours,63.3%
same,Average CFU/Test carrier (Survivors in the test),[2]; 24 hours,7.3 × 10^4 CFU/ CFU/Carrier
same,Percent Reduction Compared to Corresponding Natural Die-off,[2]; 24 hours,70.4%
same,Percent Reduction as Compared to Time Zero Control,[2]; 24 hours,75.7%
same,efficacy in words,[2]; [4],proven effective
same,Average CFU/Test carrier (Survivors in the test),VRE (ATCC 51575); 2 hours,<1 (no survivors) CFU/Test carrier
same,Percent Reduction Compared to Corresponding Natural Die-off,VRE (ATCC 51575); 2 hours,>99.999%
same,Percent Reduction as Compared to Time Zero Control,VRE (ATCC 51575); 2 hours,>99.9999%
same,Average CFU/Test carrier (Survivors in the test),VRE (ATCC 51575); 6 hours,<1 (no survivors) CFU/Test carrier
same,Percent Reduction Compared to Corresponding Natural Die-off,VRE (ATCC 51575); 6 hours,>99.99%
same,Percent Reduction as Compared to Time Zero Control,VRE (ATCC 51575); 6 hours,>99.9999%
same,Average CFU/Test carrier (Survivors in the test),VRE (ATCC 51575); 24 hours,<1 (no survivors) CFU/Test carrier
same,Percent Reduction Compared to Corresponding Natural Die-off,VRE (ATCC 51575); 24 hours,>99.9%
same,Percent Reduction as Compared to Time Zero Control,VRE (ATCC 51575); 24 hours,>99.9999%
same,efficacy in words,VRE (ATCC 51575); [4],proven effective
same,Average CFU/Test carrier (Survivors in the test),A. niger (ATCC 16404); 2 hours,1.9 × 10^5 CFU/ CFU/Carrier
same,Percent Reduction Compared to Corresponding Natural Die-off,A. niger (ATCC 16404); 2 hours,13.6%
same,Percent Reduction as Compared to Time Zero Control,A. niger (ATCC 16404); 2 hours,19.1%
same,Average CFU/Test carrier (Survivors in the test),A. niger (ATCC 16404); 6 hours,4.67 × 10^4 CFU/ CFU/Carrier
same,Percent Reduction Compared to Corresponding Natural Die-off,A. niger (ATCC 16404); 6 hours,81.3%
same,Percent Reduction as Compared to Time Zero Control,A. niger (ATCC 16404); 6 hours,80.1%
same,Average CFU/Test carrier (Survivors in the test),A. niger (ATCC 16404); 24 hours,1.2 × 10^4 CFU/ CFU/Carrier
same,Percent Reduction Compared to Corresponding Natural Die-off,A. niger (ATCC 16404); 24 hours,90.8%
same,Percent Reduction as Compared to Time Zero Control,A. niger (ATCC 16404); 24 hours,94.9%
same,efficacy in words,A. niger (ATCC 16404); [4],proven effective
same,efficacy in words,[3]; [4],proven effective
same,reduction of the bacteria on inoculated chips,"[3]; several tests, all cases, within a matter of hours",significant reduction
